Marks after values point to notes of the source that are not given here.
Columns and labels:
[1] = system: STAM Mouse Model of Non-alcoholic Steatohepatitis (NASH); assay: Liver triglyceride and plasma ALT levels in STAM mouse model of NASH (Example 19); assay type: in vivo, C57/BL6 mice; settings: male STAM mice, N = 8, Mean (SD)
Method: In the STAM® model of NASH, C57/BL6 mice were injected with a single subcutaneous dose of 200 μg […], two days after birth to destroy pancreatic j-cells. At the age of 4 weeks, animals were put on a high fat diet (57% kcal from fat) and maintained on the same diet throughout the study. […] […] A control group of STAM animals (n=8) received daily doses of telmisartan control compound (10 mg/kg). An additional group of normal mice (n=8) received no treatment. After 21 days of dosing, at 9 weeks of age, metabolic parameters were determined and animals were sacrificed. Liver triglyceride levels were determined by homogenization in chloroform-methanol and incubation overnight at room temperature. After washing with chloroform-methanol-water, the extracts were evaporated to dryness and dissolved in isopropanol. Liver triglyceride content was then measured by Triglyceride E-test (Wako, Japan). Plasma ALT levels were determined by using Fuji Dri-Chem 7000 (Fujifilm, Japan).

[2] = system: STAM Mouse Model of Non-alcoholic Steatohepatitis (NASH); assay: NAFLD activity score in STAM mouse model of NASH (Example 18); assay type: in vivo, C57/BL6 mice; settings: male STAM mice, N = 8, Mean (SD)
Method: In the STAM® model of NASH, C57/BL6 mice were injected with a single subcutaneous dose of 200 μg […], two days after birth to destroy pancreatic j-cells. At the age of 4 weeks, animals were put on a high fat diet (57% kcal from fat) and maintained on the same diet throughout the study. […] Beginning at 6 weeks of age, groups of STAM animals (8 animals per group) were treated with the peptides of the present invention administered twice daily by intraperitoneal injection, until study termination. A control group of STAM animals (n=8) received daily doses of telmisartan control compound (10 mg/kg). An additional group of normal mice (n=8) received no treatment. After 21 days of dosing, at 9 weeks of age, metabolic parameters were determined and animals were sacrificed. Liver samples were obtained and fixed, embedded in paraffin, stained with hematoxylin and eosin, and examined by light microscopy. The extent of steatosis and the non-alcoholic fatty liver disease (NAFLD) activity score (NAS) were determined histopathologically according to methods known in the art.

[3] = system: Diet Induced Obese (DIO) mice; assay: Serum triglycerides and enzyme markers of liver damage in DIO mice, 21 days (Example 9); assay type: in vivo, Male C57BL/6 mice; settings: male DIO mice; for reduction in serum ALT compared to liraglutide or vehicle alone / reduction in serum AST compared to liraglutide or vehicle alone / reduction in serum triglycerides compared to liraglutide or vehicle alone: 21 days twice daily 15 mg/kg/dose; for ALT (U/L), mean concentration in serum / AST (U/L), mean concentration in serum / Triglycerides (mg/dL), mean concentration in serum: 21 days twice daily IP 15 mg/kg/dose, serum 2 hours after first dose on Day 21
Method: Male C57BL/6 mice were maintained on a high fat diet for 12 to 22 weeks to develop diet induced obesity. Animals were randomized to treatment groups based on blood glucose levels and body weight. The peptides (SEQ ID No: 208, and SEQ ID NO: 210) were each administered to a group of male DIG mice twice daily by appropriate routes at a dose of 15 mg/kg/dose for 21 days (N=8 to 12 animals per treatment group). […] Serum samples were obtained at termination 2 hours after the first dose on Day 21. Samples were analyzed for standard clinical chemistry parameters by methods well known in the art.

[4] = system: Diet Induced Obese (DIO) mice; assay: Body weight and fat mass in Diet Induced Obese mice, 21-day study (Example 7); assay type: in vivo, Male C57BL/6 mice; settings: male DIO mice; 21 days twice daily IP 15 mg/kg/dose; Mean (SD)
Method: Male C57BL/6 mice were maintained on a high fat diet for 12 to 22 weeks to develop diet induced obesity. Animals were randomized to treatment groups based on blood glucose levels and body weight. The peptides (SEQ ID No: 208 and SEQ ID NO: 210) were each administered to a group of male DIO mice twice daily by appropriate routes at a dose of 15 mg/kg/dose for 21 days (N=8 to 12 animals per treatment group). […] Metabolic parameters including body weight, blood glucose levels and food intake were monitored. Body mass distribution (fat vs lean) was determined where appropriate by quantitative whole body NMR prior to dosing and at the end of dosing.

[5] = 21 days IP BID 15 mg/kg/dose beginning at 6 weeks of age

Compound: CCCc1nc2c(C)cc(-c3nc4ccccc4n3C)cc2n1Cc1ccc(-c2ccccc2C(=O)O)cc1 [Telmisartan, telmisartan, reference compound]
- Liver Triglyceride Levels (mg/g liver) ([1]; 21 days PO BID 10 mg/kg): 18.8 (5.8)* mg/g liver
- Plasma ALT (U/L) ([1]; 21 days PO BID 10 mg/kg): 39 (6)* U/L
- NAFLD Activity Score (NAS) ([2]; 21 days PO QD 10 mg/kg/dose beginning at 6 weeks of age): 2.6 (0.5)*

Compound: H-MRWQEMNYIFYPR-OH [SEQ ID NO: 208]
- Liver Triglyceride Levels (mg/g liver) [1, 5]: 35.3 (15.1)* mg/g liver
- Plasma ALT (U/L) [1, 5]: 43 (16)* U/L
- NAFLD Activity Score (NAS) [2, 5]: 3.7 (0.5)*
- reduction in serum ALT compared to liraglutide or vehicle alone [3]: greater reduction
- reduction in serum AST compared to liraglutide or vehicle alone [3]: greater reduction
- reduction in serum triglycerides compared to liraglutide or vehicle alone [3]: greater reduction
- ALT (U/L), mean concentration in serum [3]: 40.4 U/L
- AST (U/L), mean concentration in serum [3]: 70.0 U/L
- Triglycerides (mg/dL), mean concentration in serum [3]: 76.0 mg/dL
- Decrease from Baseline in Body Weight (%) [4]: −17.2 (3.0) %
- Decrease from Baseline in Fat Mass (g) [4]: −6.4 (0.5) g

Compound: H-RWQEMNYIFYPR-OH [SEQ ID NO: 210]
- Liver Triglyceride Levels (mg/g liver) [1, 5]: 43.6 (9.3)* mg/g liver
- Plasma ALT (U/L) [1, 5]: 37 (13)* U/L
- NAFLD Activity Score (NAS) [2, 5]: 3.3 (1.1)*
- reduction in serum ALT compared to liraglutide or vehicle alone [3]: greater reduction
- reduction in serum AST compared to liraglutide or vehicle alone [3]: greater reduction
- reduction in serum triglycerides compared to liraglutide or vehicle alone [3]: greater reduction
- ALT (U/L), mean concentration in serum [3]: 45.0 U/L
- AST (U/L), mean concentration in serum [3]: 125 U/L
- Triglycerides (mg/dL), mean concentration in serum [3]: 93.0 mg/dL
- Decrease from Baseline in Body Weight (%) [4]: −14.1 (4.8) %
